Test [1] deals with canine V595E transitional epithelial cancer cells (TCCV-Ka, TCCV-So, TCCV-Ec, TCCV-Ni, TCCV-Ic). Nature of the test: Cell proliferation suppressing test (WST 1), five V595E transitional epithelial cancer established cell lines. Format: cell-based. The text has this: Using five canine V595E transitional epithelial cancer established cell lines, taken from clinical cases by the inventors so far and cloned in approximately 80 passages, the cell proliferation suppressing activity of eight human BRAF inhibiting agents (GDC0879, AZ628, PLX4720, Encorafenib, Vemurafenib, Dabrafenib, RAF265, and CEP32496), which are available and have high cell proliferation suppressing activity, was investigated. In addition, in the xenograft test system, suppression of tumor growth (anti-tumor activity) was measured and the anti-tumor activity was investigated.
1,000 to 3,000 established cell lines (TCCV-Ka, TCCV-So, TCCV-Ec, TCCV-Ni, and TCCV-Ic) per well were spread on 96 well culture plates and cultured for 24 hours, then 8 BRAF inhibiting agents (GDC0879, AZ628, PLX4720, Encorafenib, Vemurafenib, Dabrafenib, RAF265, and CEP32496) dissolved in 0.1% DMSO were added with GDC0879, AZ628, Vemurafenib, Dabrafenib, and RAF265 at 0, 50, 100, 500, 1000, 5000, and 10000 nM, PLX4720 at 0, 1, 10, 100, 1000, 5000, and 10000 nM, Encorafenib at 0, 32, 63, 125, 250, 500, and 1000 nM, CEP32496 at 0, 3, 10, 30, 100, 300, and 1000 nM, the number of surviving cells after 24, 48, and 72 hours was measured using WST 1, and the cell proliferation suppressing activity was calculated. […]

In test [2] the test system is V595E transitional epithelial cancer cells (TCCV-So strain). Nature of the test: Cell proliferation suppressing test (WST 1), TCCV-So strain. Format: cell-based, canine. The settings on record: Canis lupus familiaris. Here is the method:
(§1) 1,000 to 3,000 established cell lines (TCCV-Ka, TCCV-So, TCCV-Ec, TCCV-Ni, and TCCV-Ic) per well were spread on 96 well culture plates and cultured for 24 hours, then 8 BRAF inhibiting agents (GDC0879, AZ628, PLX4720, Encorafenib, Vemurafenib, Dabrafenib, RAF265, and CEP32496) dissolved in 0.1% DMSO were added with GDC0879, AZ628, Vemurafenib, Dabrafenib, and RAF265 at 0, 50, 100, 500, 1000, 5000, and 10000 nM, PLX4720 at 0, 1, 10, 100, 1000, 5000, and 10000 nM, Encorafenib at 0, 32, 63, 125, 250, 500, and 1000 nM, CEP32496 at 0, 3, 10, 30, 100, 300, and 1000 nM, the number of surviving cells after 24, 48, and 72 hours was measured using WST 1, and the cell proliferation suppressing activity was calculated.
(§2) One example of the reaction curve of the BRAF inhibiting agent against canine V595E transitional epithelial cancer cells (TCC V-So strain) was shown in FIG. 1.

Test [3] concerns BRAFV595E transitional epithelial cancer cells (TCCV-Ka strain). Nature of the test: Anti-tumor activity by a xenograft test system (TCCV-Ka strain in SCID mice). In kind it is in vivo, SCID mouse. The following applies: 10 mg/kg intraperitoneally, 5 times/week, compared to control group, from day 5 of administration. Here is the method: In order to observe the anti-tumor activity in the xenograft test system, it has been reported that the tumor growth depends on the number of cells inoculated, cell strains, and animal species. Then, five strains of V595E transitional epithelial cancer established cell lines, 1×10^6 and 1×10^7 cells/200 μl, were inoculated subcutaneously on the ventral side of SCID mouse (CB17/Icr-scid/scid. Jcl, CLEA Japan), and the formation of tumors was observed.
Using the TCCV-Ka strain as a graft cell, 1×10^7 cells were inoculated on the right ventral side of 5 SCID mice in each of the administration group and the control group. Two weeks later, a tumor of approximately 5×5 mm was formed. In the control group, 10% DMSO was administered intraperitoneally, and in the administration group, 200 μl of CEP32496 suspension solution (10 mg/kg) in 10% DMSO was administered intraperitoneally. The administration was 5 times/week.

The subject of another test is TCCV-Ec strain. Nature of the test: Cell proliferation suppressing test (WST 1), TCCV-Ec strain. In kind it is cell-based, canine. The following applies: Canis lupus familiaris; TCCV-Ec strain only. Here is the method:
as §1, §2

The subject of another test is TCCV-Ni strain. Put plainly: Cell proliferation suppressing test (WST 1), TCCV-Ni strain. In kind it is cell-based, canine. The settings on record: Canis lupus familiaris.

The values below come from US20230132535A1, “PROLIFERATION SUPPRESSING AGENT FOR CANINE CANCER CELLS” (Japan Animal Referral Medical Center, priority 2020, published 2023).

pIC50: −log10 of the molar value.

On to `COc1cc2ncnc(Oc3cccc(NC(=O)Nc4cc(C(C)(C)C(F)(F)F)on4)c3)c2cc1OC` [CEP32496, 1-(3-((6,7-dimethoxyquinazolin-4-yl)oxy)phenyl)-3-(5-(1,1,1-trifluoro-2-methylpropan-2-yl)isoxazol-3-yl)urea], for which, in test [1] (5 strains, FIG. 2), the “proliferation suppressing activity compared to the other 7 BRAF inhibiting agents” value was “significantly higher activity”. The pIC50 in test [1] (Canis lupus familiaris, all the cell strains used (5 strains)) is 6.70 to 8.05; in test [2] it was 7.82. Also, the “suppression of tumor formation (anti-tumor activity)” value in test [3] was “significant suppression of tumor formation”. `COC(=O)N[C@@H](C)CNc1nccc(-c2cn(C(C)C)nc2-c2cc(Cl)cc(NS(C)(=O)=O)c2F)n1` [Encorafenib]: the pIC50 with TCCV-Ec strain is 6.74.

The molecule `CCCS(=O)(=O)Nc1ccc(F)c(C(=O)c2c[nH]c3ncc(Cl)cc23)c1F` [PLX4720] had a pIC50 in the test on TCCV-Ec strain of 6.70.

`Cn1c(Nc2ccc(C(F)(F)F)cc2)nc2cc(Oc3ccnc(-c4ncc(C(F)(F)F)[nH]4)c3)ccc21` [RAF265]: in the test on TCCV-Ec strain, the pIC50 was 6.82. Consider `CCCS(=O)(=O)Nc1ccc(F)c(C(=O)c2c[nH]c3ncc(-c4ccc(Cl)cc4)cc23)c1F` [Vemurafenib], for which, in the test with TCCV-Ni strain, the pIC50 was 5.82.
